Assay results taken from patent US4820717A, “Antimicrobial aromatic derivatives substituted by an (omega amino) alkanol group and compositions containing them” (priority 1985, dated 1989).
Converted amounts (≈) assume the structure as drawn.

Columns and labels:
[1] = tested on: Pseudomonas aeruginosa CNCM A22; assay: Bactericidal activity (MBC), strain 3; assay type: cell-based; details: CNCMA22, 20 min, strain 3, 20 minutes of contact, read-out: Minimum bactericidal concentration (MBC)
Text: (§1) The bactericidal activity of the products according to the invention has been analyzed on various strains by the method described hereafter:
(§2) A bacterial inoculum is placed in contact with different dilutions of the product to be tested, and this for a limited period of time. At the end of contact, an aliquot part of the mixture bacterial suspension/product is deposited on the surface of an agar culture medium containing an agent neutralizing the antibacterial activity of the product. The bactericidal concentration retained is the smallest concentration of the product from which bacteria stop growing. Said concentration is expressed in μg/ml.
(§3) The bacterial strains selected for the analysis are:
3--Pseudomonas aeruginosa CNCM A22;
(§4) The second strain is supported on a Worgel Fergusson medium, the other strains being supported on Tryptic Soy Agar-Difco (TSA) commercialized by Difco.
(§5) After a 24-hour culture period at 37° C., the microbial growth is collected by means of glass beads and of 10 ml of diluent containing 1 g of tryptone and 8.5 g of sodium chloride in 1000 ml of distilled water. The formed suspension is stirred and the percentage of light transmission at 620 nm is measured with a spectrophotometer:
(§6) The bacterial inoculum corresponds to a 1/20th dilution of this bacterial suspension.
(§7) Plates equipped with cupules receive different dilutions of the product to be analyzed. These dilutions are placed in contact with the different bacterial suspensions by means of a multiple-center inoculator. After 20 minutes of contact, aliquot parts are transferred by means of said inoculator on the surface of an agar medium (TSA) in Petri dishes, containing an activity-neutralizing agent, namely 20 g of lubrol W, 25 g of Tween 80 and 2.5 g of sodium thiosulfate in 1000 ml of TSA (Difco). The efficiency of the neutralizing agent is controlled for each product to be analyzed by depositing on the surface of the culture medium an aliquot part of the dilution of the product to be analyzed. After drying, the corresponding inoculum is deposited in the same place. An inoculum control is performed on an agar medium with or without neutralizing agent. Readings are taken after 48 hours of incubation at 37° C.

[2] = tested on: Staphylococcus aureus CNCM 53154; assay: Bactericidal activity (MBC), strain 5; assay type: cell-based; details: CNCM53154, 20 min, strain 5, 20 minutes of contact, read-out: Minimum bactericidal concentration (MBC)
Text: as §1, §2, §3
5--Staphylococcus aureus CNCM 53154.
as §4, §5, §6, §7

[3] = Acute toxicity by oral route in mice; details: mouse, in vivo, per os, male CD1 mice, 14 days observation
Procedure: Acute toxicity was tested by oral route in mice. This test was carried out with male mice of CD1 strain, obtained from the Charles Reever breeding farm. Each batch was composed of 5 animals of body weight varying between 24 and 30 g kept in the same cage. The animals were kept fasting for 6 hours before the treatment. For every test, the product, placed in suspension in a 10% solution of gum arabic, was administered by forcible feeding with an oesophageal probe. Food was then served to the animals 4 hours after the forcible feeding and the animals were kept under observation for a period of 14 days after the administration. During that period, the death rate is recorded for each batch of animals used in the experiment and, wherever possible, the LD50 is determined by the method of J. T. Litchfield and F. Wilcoxon, J. Pharmacol. 1949, 95, 99-113.
The results are given in mg of substance tested per kg of body weight. They are compiled in Table III below.

[4] = tested on: Streptococcus faecalis CNCM 5855; assay: Bactericidal activity (MBC), strain 4; assay type: cell-based; details: Enterococcus faecalis, CNCM5855, 20 min; strain 4, 20 minutes of contact; read-out: Minimum bactericidal concentration (MBC)
Text: as §1, §2, §3
4--Streptococcus faecalis CNCM 5855;
as §4, §5, §6, §7

[5] = tested on: Escherichia Coli CNCM 54125; assay: Bactericidal activity (MBC), strain 1; assay type: cell-based; details: 20 min, strain 1, 20 minutes of contact, read-out: Minimum bactericidal concentration (MBC)
Text: as §1, §2, §3
1--Escherichia Coli CNCM 54125;
as §4, §5, §6, §7

[6] = tested on: Encapsulated klebsiella pneumoniae R030; assay: Bactericidal activity (MBC), strain 2; assay type: cell-based; details: 20 min, strain 2, 20 minutes of contact, read-out: Minimum bactericidal concentration (MBC)
Text: as §1, §2, §3
2--Encapsulated klebsiella pneumoniae R030;
as §4, §5, §6, §7

[7] = tested on: Torulopsis glabrata 072023; assay: Antifungal activity (MFC), strain 4; assay type: cell-based; details: 20 min; yeast strain 4; read-out: Minimum fongicidal concentration (MFC)
Text: as §2, §7
(§8) The antifungal activity of the products according to the invention was also determined with the aforedescribed method.
(§9) The fungal strains selected for the analysis are:
(§10) These strains are supported on a Sabouraud Dextrose agar medium commercialized by Difco; the technique used is the same as that used in the analysis of the antibacterial activity. After 48 hours of culture at 37° C., the microbial growth is collected with glass beads and 5 ml of diluent containing 1 g of tryptone and 8.5 g of sodium chloride in 1000 ml of distilled water; 5 ml of the diluent are then added. […] A 1/100th dilution of this suspension, observed between slides under a microscope 40-lens, should show 10 cells per frame, this corresponding to 1,000,000 yeasts per ml.

Candida parakruzei 3918 = assay: Antifungal activity (MFC), strain 3; assay type: cell-based; details: 20 min; yeast strain 3; read-out: Minimum fongicidal concentration (MFC)
Text: as §2, §7, §8, §9
3--Candida parakruzei 3918;
as §10

Candida tropicalis 3834 = assay: Antifungal activity (MFC), strain 2; assay type: cell-based; details: 20 min; yeast strain 2; read-out: Minimum fongicidal concentration (MFC)
Text: as §2, §7, §8, §9
2--Candida tropicalis 3834;
as §10

[8] = tested on: Candida albicans CNCM 1180; assay: Antifungal activity (MFC), strain 1; assay type: cell-based; details: 20 min; yeast strain 1; read-out: Minimum fongicidal concentration (MFC)
Text: as §2, §7, §8, §9
1--Candida albicans CNCM 1180;
as §10

CCN(CC)CCC(CO)c1cccc2ccccc12.Cl (stereo not shown) [SR 42 989 A, 4-(N,N-diethylamino)-2-(1-naphthyl)-butanol hydrochloride]
MBC [1]: 1500 µg/mL | MBC [2]: 1500 µg/mL | LD50 at 336 h [3]: 300 to 400 mg/kg | MBC [4]: 2000 µg/mL | MBC [5]: 1500 µg/mL | MBC [6]: 1500 µg/mL

CN(C)CCCC(CO)c1cccc2ccccc12 (stereo not shown) [SR 42 994 A]
MFC [7]: 5000 µg/mL (≈ 19.4 mM) | MFC (Candida parakruzei 3918): 500 µg/mL (≈ 1.94 mM) | MFC (Candida tropicalis 3834): 500 µg/mL (≈ 1.94 mM) | MBC [1]: 1000 µg/mL (≈ 3.89 mM) | MFC [8]: 500 µg/mL (≈ 1.94 mM) | MBC [2]: 1000 µg/mL (≈ 3.89 mM) | LD50 at 336 h [3]: 750 to 1000 mg/kg | MBC [4]: 1000 µg/mL (≈ 3.89 mM) | MBC [5]: 1000 µg/mL (≈ 3.89 mM) | MBC [6]: 800 µg/mL (≈ 3.11 mM)

OCC(CCN1CCCC1)c1cccc2ccccc12 (stereo not shown) [SR 43 063 A]
MBC [1]: 1000 µg/mL (≈ 3.71 mM) | MBC [2]: 1000 µg/mL (≈ 3.71 mM) | LD50 at 336 h [3]: 300 to 400 mg/kg | MBC [4]: 2000 µg/mL (≈ 7.42 mM) | MBC [5]: 2000 µg/mL (≈ 7.42 mM) | MBC [6]: 1000 µg/mL (≈ 3.71 mM)

OCC(CCCN1CCCCC1)c1cccc2ccccc12 (stereo not shown) [SR 43 087 A]
MFC [7]: 5000 µg/mL (≈ 16.8 mM) | MFC (Candida parakruzei 3918): 1000 µg/mL (≈ 3.36 mM) | MFC (Candida tropicalis 3834): 1000 µg/mL (≈ 3.36 mM) | MBC [1]: 800 µg/mL (≈ 2.69 mM) | MFC [8]: 1000 µg/mL (≈ 3.36 mM) | MBC [2]: 800 µg/mL (≈ 2.69 mM) | MBC [4]: 2000 µg/mL (≈ 6.72 mM) | MBC [5]: 1500 µg/mL (≈ 5.04 mM) | MBC [6]: 1000 µg/mL (≈ 3.36 mM)

CC(C)N(CCC(CO)c1cccc2ccccc12)C(C)C (stereo not shown) [SR 43 121 A]
MBC [1]: 1500 µg/mL (≈ 5.01 mM) | MBC [2]: 800 µg/mL (≈ 2.67 mM) | LD50 at 336 h [3]: 300 to 400 mg/kg | MBC [4]: 800 µg/mL (≈ 2.67 mM) | MBC [5]: 1500 µg/mL (≈ 5.01 mM) | MBC [6]: 1500 µg/mL (≈ 5.01 mM)

OCC(CCN1CCCCC1)c1ccc2ccccc2c1 (stereo not shown) [SR 43 154 A]
MBC [1]: 800 µg/mL (≈ 2.82 mM) | MBC [2]: 1000 µg/mL (≈ 3.53 mM) | MBC [4]: 1500 µg/mL (≈ 5.29 mM) | MBC [5]: 2000 µg/mL (≈ 7.06 mM) | MBC [6]: 1500 µg/mL (≈ 5.29 mM)

OCC(CCN1CCCCCC1)c1cccc2ccccc12 (stereo not shown) [SR 43 155 A]
MFC [7]: 2000 µg/mL (≈ 6.72 mM) | MFC (Candida parakruzei 3918): 500 µg/mL (≈ 1.68 mM) | MFC (Candida tropicalis 3834): 500 µg/mL (≈ 1.68 mM) | MBC [1]: 200 µg/mL (≈ 0.672 mM) | MFC [8]: 500 µg/mL (≈ 1.68 mM) | MBC [2]: 500 µg/mL (≈ 1.68 mM) | LD50 at 336 h [3]: < 500 mg/kg | MBC [4]: 500 µg/mL (≈ 1.68 mM) | MBC [5]: 500 µg/mL (≈ 1.68 mM) | MBC [6]: 500 µg/mL (≈ 1.68 mM)

CCC(CO)(CCN1CCCCC1)c1cccc2ccccc12.Cl (stereo not shown) [SR 43 245 A, 2-ethyl-2-(1-naphthyl)-4-piperidino-butanol hydrochloride]
MBC [1]: 800 µg/mL | MBC [2]: 1000 µg/mL | MBC [4]: 1500 µg/mL | MBC [5]: 1500 µg/mL | MBC [6]: 1000 µg/mL

OCC(CCN1CCc2ccccc2C1)c1cccc2ccccc12 (stereo not shown) [SR 43 247 A]
MFC [7]: 2000 µg/mL (≈ 6.03 mM) | MFC (Candida parakruzei 3918): 1000 µg/mL (≈ 3.02 mM) | MFC (Candida tropicalis 3834): 500 µg/mL (≈ 1.51 mM) | MBC [1]: 300 µg/mL (≈ 0.905 mM) | MFC [8]: 1000 µg/mL (≈ 3.02 mM) | MBC [2]: 500 µg/mL (≈ 1.51 mM) | MBC [4]: 300 µg/mL (≈ 0.905 mM) | MBC [5]: 300 µg/mL (≈ 0.905 mM) | MBC [6]: 300 µg/mL (≈ 0.905 mM)

CC1CCN(CCCC(CO)c2cccc3ccccc23)CC1 (stereo not shown) [SR 43 290 A]
MBC [1]: 800 µg/mL (≈ 2.57 mM) | MBC [2]: 800 µg/mL (≈ 2.57 mM) | MBC [4]: 4000 µg/mL (≈ 12.8 mM) | MBC [5]: 1500 µg/mL (≈ 4.82 mM) | MBC [6]: 800 µg/mL (≈ 2.57 mM)

CN1CCN(CCC(CO)c2cccc3ccccc23)CC1 (stereo not shown) [SR 43 291A, reference compound]
MBC [1]: 1000 µg/mL (≈ 3.35 mM) | MBC [2]: 8000 µg/mL (≈ 26.8 mM) | MBC [4]: > 10000 µg/mL | MBC [5]: 5000 µg/mL (≈ 16.8 mM) | MBC [6]: 3000 µg/mL (≈ 10.1 mM)

CC1CCN(CCC(CO)c2cccc3ccccc23)CC1 (stereo not shown) [SR 43 382 A]
MFC [7]: 10000 µg/mL (≈ 33.6 mM) | MFC (Candida parakruzei 3918): 2000 µg/mL (≈ 6.72 mM) | MFC (Candida tropicalis 3834): 1000 µg/mL (≈ 3.36 mM) | MBC [1]: 2000 µg/mL (≈ 6.72 mM) | MFC [8]: 5000 µg/mL (≈ 16.8 mM) | MBC [2]: 2000 µg/mL (≈ 6.72 mM) | MBC [4]: 5000 µg/mL (≈ 16.8 mM) | MBC [5]: 5000 µg/mL (≈ 16.8 mM) | MBC [6]: 2000 µg/mL (≈ 6.72 mM)
